Laboratory results as given in patent publication US20190307740A1, “COMPOSITIONS AND METHODS FOR TREATMENT RELATED TO FALL AND FALL FREQUENCY IN NEURODEGENERATIVE DISEASES” (Neurocea, LLC, priority 2016, published 2019).
Where two headings read alike, the source gives them in different places.

Legend:
[1] = system: rats with a unilateral 6-hydroxydopamine lesion; test: LIDs in rats with a unilateral 6-hydroxydopamine lesion; type: in vivo; conditions: parkinsonian rat model of LIDs
[2] = system: subjects with idiopathic PD with LIDs; conditions: Visit 4 (Week 10)
Experimental: (§1) At the time the study was performed (2009), there was no FDA accepted instrument for measuring treatment efficacy for LIDs. Therefore, several secondary objectives were utilized to assess efficacy including the Unified Dyskinesia Rating Scale (UDysRS).

nAChR = conditions: cited from earlier work
[3] = system: subjects with idiopathic PD with LIDs
Experimental: as §1
(§2) Efficacy was measured with the Unified Dyskinesia Rating Scale (UDysRS), a semi-quantitative assessment, FDA-validated instrument to assess […] dyskinesia in PD. […] Dosing was begun at 1 mg every 6 hours to a final dose of 24 mg per day. Patients who tolerated a total daily dose of at least 16 mg per day continued in the study.
(§3) LIDs were assessed by the UDysRS, the main measure of LIDs (Table 12). […] The study was conducted in accordance with the Declaration of Helsinki and Good Clinical Practice Guidelines. All sites received approval from an institutional review board and written informed consent was obtained from each patient prior to participation.
(§4) The efficacy variables for LIDs were the mean change from baseline to week 10 in the UDysRS total score; UDysRS sub-scores (Table 12). An analysis of covariance (ANCOVA) combined features of regression and analysis of variance (ANOVA). In addition to the descriptive summary of each variable from baseline to endpoint, Least Square (LS) means standard errors and 95% Confidence intervals (CI) of each group, and the difference of LS means between the 2 treatment groups and its 95% CI are presented. A similar analysis was applied to comparisons between UPDRS Part II, UPDRS Part III.

[4] = system: subjects with idiopathic PD with LIDs; conditions: during the 10-week study
From the text: The original UPDRS scale was used. […] In the UPDRS Part II, Question 13 is on Falling unrelated to Freezing. […] In Part II, Question 14 is on Freezing when Walking. This is a 5-point item and has two variables freezing and falls. […] Questions 13 and 14 were compared separately (Table 11).
as §4

[5] = cited from earlier work; for absorption: oral / gastrointestinal tract
[6] = system: subjects with idiopathic PD with LIDs; conditions: for Study discontinuation, primary reason adverse event, n (%): 35 randomized
Experimental: as §1
A total of 65 male and female subjects with idiopathic PD with LIDs were randomized in the study. The study consisted of 4 phases (FIG. 6A): screening phase (up to 3 weeks), double-blind treatment phase (10 weeks), taper phase (2 weeks), and follow-up phase (2 weeks). The approximate duration of the study for each subject was 17 weeks. […] During the double-blind treatment phase, dosing was begun at Visit 0 at 1 mg every 6 hours (total daily dose [TDD]=4 mg/day) and escalated upwards at 2-week intervals as follows: 2 mg every 6 hours (TDD=8 mg/day) at Visit 1 (Week 2); 4 mg every 6 hours (TDD=16 mg/day) at Visit 2 (Week 4); 6 mg every 6 hours (TDD=24 mg/day) at Visit 3 (Week 6). Subjects were maintained on 24 mg/day for 4 weeks. The subsequent taper phase (2 weeks total), beginning at Visit 4 (Week 10), consisted of 9 days of drug taper and 5 days off drug prior to Visit 5 (final safety visit). […] Ondansetron was provided by the sponsor and dispensed with each dose escalation step with instructions to use it for nausea and vomiting only during the first 4 days following dose initiation or escalation. […] No other dose down-titration was allowed.
as §2
Subjects were maintained on 24 mg/day for 4 weeks. The subsequent taper phase (2 weeks total), beginning at visit 4 (Week 10), consisted of 9 days of drug taper and 5 days off drug prior to Visit 5 (final safety visit). […] No other down-titration was allowed.
as §3

all nAChRs = conditions: cited from earlier work
[7] = Phase 2 data used for sample size

OCCCCC#Cc1cncc(OC[C@@H]2CCN2)c1 [sazetidine]
effect on LIDs [1]: reduced LIDs to varying extents

CN1CCC[C@H]1c1cccnc1 [Nicotine, (S)-3-[1-methylpyrrolidin-2-yl]pyridine, reference compound]
PGI-C responders (score of 1, 2, or 3) ([2]; p=0.0048 vs placebo): 21 (77.8%) | LF-ADL responders (>25% reduction from baseline), vs placebo ([2]; p=0.0453): statistically significant difference between treatment groups | efficacy over time (rats and mice; in vivo): no decline in its efficacy over time | effect on LIDs (rats and mice; oral application, injection, slow-release minipumps): reduced LIDs | Type of agonist (nAChR): Full | nAChR subtype (nAChR): All | UDysRS part III, Week 10 result: change from baseline, mean [3, 7]: 5.2 | UDysRS walking, Week 10 result: change from baseline, mean [3, 7]: 4.4 | Gait-subtest of the UDysRS vs placebo ([3]; in vivo): statistically superior to placebo | dyskinesia disability (UDysRS part 3), Walking, LF-ADL and PGI-C responders vs placebo ([3]; in vivo): Statistically significant differences favoring nicotine compared to placebo | worsening of Parkinson symptoms (UPDRS Part III, Hoehn and Yahr) [4]: neither the UPDRS Part III nor the Hoehn and Yahr scales showed any worsening | worsening of Parkinson symptoms (UPDRS Part III, Hoehn and Yahr) ([4]; listed as nicotine): did not cause any worsening of the PD symptoms | first-pass metabolism ([5]; in vivo): extensively metabolized into cotinine | half-life ([5]; in vivo): very short half-life | absorption [5]: well-absorbed in the gastrointestinal tract | absorption ([5]; listed as nicotine): rapidly absorbed | Study discontinuation, primary reason adverse event, n (%) [6]: 6 n (%) | Study discontinuation, primary reason adverse event, n (%) ([6]; listed as nicotine): Six | impulsivity and nicotine withdrawal symptoms ([6]; after taper from 24 mg/day): no issues with impulsivity or withdrawal symptoms | overall safety and tolerability ([6]; oral 4 times/day up to 24 mg/day, 10 weeks): safe and well tolerated

O=C(c1ccc(Cl)o1)N1CC2CNCC2C1 (centres unmarked) [AZD1446]
Type of agonist (nAChR): Full

c1cncc(OC[C@@H]2CCN2)c1 [A-85380]
effect on LIDs [1]: reduced LIDs to varying extents

c1cnc2cc3c(cc2n1)[C@@H]1CNC[C@H]3C1 [Varenicline]
Ki (all nAChRs): 0.1 nM | effect on LIDs [1]: reduced LIDs to varying extents | Type of agonist (nAChR): Partial | nAChR subtype (nAChR): All

Cc1ncccc1OC[C@@H]1CCCN1 [ABT-089]
Type of agonist (nAChR): Partial

Cc1ccc(-c2ccc(OC3CN4CCC3CC4)cn2)cc1 (centres unmarked) [AQW051]
Type of agonist (nAChR): Partial

c1cc2cc(-c3ccc(O[C@H]4CN5CCC4CC5)nn3)ccc2[nH]1 [ABT-107]
Type of agonist (nAChR): Full

Clc1cc(N2C[C@@H]3CN[C@@H]3C2)cnc1Cl [ABT-894]
Type of agonist (nAChR): Full

CN[C@@H](C)C/C=C/c1cncc(OC)c1 [TC-2696]
effect on LIDs [1]: reduced LIDs to varying extents
